Here are results for nine molecules from ChEMBL document CHEMBL1201862, “PubChem BioAssay data set” (2004).

Among the test systems are ACHN; EKVX; HCT-15; HOP-92; KM12; LOX IMVI; M14; MOLT-4; NCI-H460; OVCAR-3; OVCAR-4; OVCAR-5; SK-OV-3; TK-10; UACC-257; UACC-62; DMS-273; KM-20L2; Malme-3M; RXF 393.
Test in all cases: NCI tumour cell line growth inhibition, 48 h

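Dose response: 5 concentrations. Exposure: 48 h. Format: 96-well plates. Endpoint: linear interpolation; highest concentration if not reached. The concentration for 50% growth inhibition is given as GI50.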 The source made the active and inactive calls. Cut-off read from the data, not from the text of the source: active = GI50 up to about 1.1 µM and inactive = higher.

With `CC(=O)O[C@H]1CN(S(=O)(=O)c2ccc(C)cc2)C[C@@H]1C1CCCCC1`, the GI50 in the test with ACHN was 36.9 µM (inactive); in the test with EKVX, 17 µM (inactive); with HCT-15, 28.4 µM; in the test with HOP-92, 23.2 µM (inactive); with KM12, 17.9 µM (inactive); in the test on LOX IMVI, 21.6 µM (inactive). The GI50 in the test on M14 is 17.7 µM (inactive); with MOLT-4, 28.5 µM (inactive); in the test on NCI-H460 it was 31.7 µM (inactive); with OVCAR-3, 18 µM (inactive); in the test with OVCAR-4, 31.9 µM (inactive); in the test with OVCAR-5, 39 µM (inactive). Moreover, the GI50 in the test with SK-OV-3 was 43.7 µM (inactive); in the test with TK-10, 21.9 µM (inactive); in the test with UACC-257, 18 µM (inactive); with UACC-62, 22.6 µM (inactive).
Regarding `O=C(Nc1ccc(C(F)(F)F)cc1[N+](=O)[O-])C(=O)Nn1c(S)nc2ccccc2c1=O`, the GI50 is > 100 µM (inactive) with ACHN; > 100 µM (inactive) in the test on DMS-273; 33.3 µM (inactive) in the test with EKVX; over 100 µM with HCT-15; > 100 µM (inactive) in the test on HOP-92; > 100 µM (inactive) in the test with KM-20L2. Also, the GI50 with KM12, with LOX IMVI, with MOLT-4, with Malme-3M, in the test with NCI-H460 and in the test on OVCAR-4 was > 100 µM (inactive) each time. Also, the GI50 with OVCAR-5, with RXF 393, in the test with SK-OV-3, with TK-10, in the test with UACC-257 and in the test with UACC-62 was > 100 µM (inactive) each time.
Take `Nc1nc(SCCC/C=C/B(O)O)nc2c1ncn2C1OC(CO)C(O)C1O` (centres undefined): the GI50 was > 243 µM (inactive) in the test on ACHN; > 243 µM (inactive) with DMS-273; > 243 µM (inactive) in the test with EKVX; over 243 µM in the test with HCT-15; > 243 µM (inactive) in the test on HOP-92; > 243 µM (inactive) in the test with KM-20L2. In addition, the GI50 with KM12, in the test on LOX IMVI, in the test with M14, in the test with MOLT-4, with Malme-3M and with NCI-H460 was > 243 µM (inactive) in each case. For the same molecule, the GI50 with OVCAR-3, with OVCAR-4, with OVCAR-5, in the test with RXF 393, in the test on SK-OV-3 and in the test with TK-10 was > 243 µM (inactive) each time. The GI50 with UACC-257 and in the test with UACC-62 was > 243 µM (inactive) in each case.
With `CCO/N=[N+](\[O-])N(CC)CC`, the GI50 in the test with ACHN was > 100 µM (inactive); in the test with DMS-273, > 100 µM (inactive); with EKVX it was > 100 µM (inactive); in the test with HCT-15, over 100 µM; in the test with HOP-92, > 100 µM (inactive); with KM-20L2, > 100 µM (inactive). The GI50 in the test with KM12, in the test on LOX IMVI, with M14, with MOLT-4, in the test on NCI-H460 and in the test on OVCAR-3 was > 100 µM (inactive) each time. Also, the GI50 in the test on OVCAR-5, in the test with RXF 393, in the test on SK-OV-3, with TK-10, with UACC-257 and in the test on UACC-62 was > 100 µM (inactive) throughout.
`C=C1C(=O)O[C@H]2C1[C@H](OC(=O)/C(C)=C\COC(C)=O)C[C@]1(CO1)[C@@H]1[C@H](O)[C@H]3O[C@@]3(C)[C@@H]12` (some centres undefined): the GI50 in the test on DMS-273 is 26.3 µM (inactive); with EKVX, 26.3 µM (inactive); with HCT-15, 18.5 µM; in the test on HOP-92 it was 15.2 µM (inactive); in the test on KM-20L2, 30.5 µM (inactive); in the test with KM12, 14.8 µM (inactive). The GI50 in the test on LOX IMVI is 16.7 µM (inactive); in the test with MOLT-4, 19.5 µM (inactive); in the test on Malme-3M, 20.7 µM (inactive); in the test on NCI-H460, 33.4 µM (inactive); in the test with OVCAR-3 it was 18.3 µM (inactive); with OVCAR-4, 27 µM (inactive). Further, the GI50 is > 71.6 µM (inactive) in the test on OVCAR-5; 16.8 µM (inactive) in the test with RXF 393; > 67 µM (inactive) in the test with SK-OV-3; 16.8 µM (inactive) in the test with UACC-257; 15.8 µM (inactive) in the test on UACC-62.
Turning to `COc1cc([N+](=O)[O-])ccc1NC(=O)C(F)(F)F`, the GI50 in the test on ACHN was > 100 µM (inactive); in the test with EKVX, > 100 µM (inactive); with HCT-15, over 100 µM; in the test on KM12 it was 97.9 µM (inactive); in the test on LOX IMVI, > 100 µM (inactive); with M14, > 100 µM (inactive). The GI50 with MOLT-4, with NCI-H460, in the test on OVCAR-3, with OVCAR-4, in the test with OVCAR-5 and in the test with SK-OV-3 was > 100 µM (inactive) throughout. Besides, the GI50 in the test on TK-10 was > 100 µM (inactive); in the test with UACC-257, > 100 µM (inactive); with UACC-62 it was 43.1 µM (inactive).
In the case of `COc1ccc(/C(Cl)=C(\C=O)c2ccc(Cl)cc2)cc1OC`, the GI50 with ACHN is 3.18 µM (inactive); with DMS-273, 3.72 µM (inactive); in the test with EKVX it was 4.47 µM (inactive); with HCT-15 it was 3.29 µM; in the test on KM-20L2, 7.62 µM (inactive); in the test on LOX IMVI, 3.45 µM (inactive). Moreover, the GI50 was 22.4 µM (inactive) with M14; 2.12 µM (inactive) in the test with MOLT-4; 34.9 µM (inactive) in the test on Malme-3M; 3.54 µM (inactive) with NCI-H460; 5.74 µM (inactive) in the test with OVCAR-3; 5.12 µM (inactive) in the test on OVCAR-4. In addition, the GI50 in the test on OVCAR-5 is 85.1 µM (inactive); in the test on RXF 393, 6.01 µM (inactive); in the test with SK-OV-3, 34.8 µM (inactive); with TK-10, 5.26 µM (inactive); with UACC-257, 6.55 µM (inactive); with UACC-62, 5.97 µM (inactive).
In the case of `CN(Cc1cnc2c(N)nc(N)nc2n1)c1ccc(Cl)cc1`, the GI50 with ACHN is 26.6 µM (inactive); in the test on EKVX, > 100 µM (inactive); in the test on HCT-15, 71.6 µM; in the test on KM12 it was > 100 µM (inactive); in the test with M14, 73.8 µM (inactive); in the test on MOLT-4 it was > 100 µM (inactive). Also, the GI50 in the test with Malme-3M was > 100 µM (inactive); in the test with NCI-H460, 42.5 µM (inactive); in the test on OVCAR-3, > 100 µM (inactive); with OVCAR-5, > 100 µM (inactive); in the test with RXF 393, 17 µM (inactive); in the test with SK-OV-3, 26.2 µM (inactive). Further, the figures for the GI50 with TK-10, in the test with UACC-257 and in the test on UACC-62 were 38.7 µM (inactive), 78.5 µM (inactive) and 24.4 µM (inactive), respectively.
On to `C=C1C(=O)OC2/C=C(\C)CC(O)/C=C(/CO)CC(OC(=O)/C(C)=C/C)C12` (centres undefined), for which the GI50 is 24 µM (inactive) in the test with DMS-273; 23 µM (inactive) in the test on EKVX; 38.4 µM in the test on HCT-15; 30.9 µM (inactive) in the test with HOP-92; 71.1 µM (inactive) in the test on KM-20L2; 45 µM (inactive) in the test on KM12. The GI50 in the test with LOX IMVI was 12.3 µM (inactive); with MOLT-4 it was 18.2 µM (inactive); in the test on Malme-3M it was 18.9 µM (inactive); in the test with NCI-H460, 36 µM (inactive); with OVCAR-3, 29.9 µM (inactive); in the test with OVCAR-4, 117 µM (inactive). For the same molecule, the GI50 is 147 µM (inactive) in the test with OVCAR-5; 14.4 µM (inactive) in the test with RXF 393; 158 µM (inactive) in the test on SK-OV-3; 45.6 µM (inactive) in the test with UACC-257; 37.8 µM (inactive) in the test with UACC-62.
